From patent US8207172B2 (Bayer Intellectual Property GmbH, priority 2004, dated 2012)
Structures can show the parent of a compound that is named as a salt.

How the values were obtained:
[1] = test system: A431 cells (human epidermoid carcinoma); assay: In vitro tumor cell proliferation assay (Cell Titer-Glo luminescent cell viability), A431; type: cell-based; conditions: A-431, 72 h, 72 hours of drug exposure, ATP luminescence readout, read-out: IC50, anti-proliferative activity (inhibition of cell proliferation)
In short: (§1)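 CellTiter-Glo luminescence (ATP content of metabolically active cells) after 72 h compound exposure at 37° C gave IC50s.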

[2] = test system: BT474 (human breast carcinoma); assay: In vitro tumor cell proliferation assay (Cell Titer-Glo luminescent cell viability), BT474; type: cell-based; conditions: BT-474, 72 h, BT474 cells, 72 hours of drug exposure, ATP luminescence readout, read-out: IC50, anti-proliferative activity (inhibition of cell proliferation)
In short: as §1

| IC50 [1] [µM] | IC50 [2] [µM] | SMILES |
| --- | --- | --- |
| ≤ 50 | ≤ 1 | O[C@H](CN1CCSCC1)Cn1cc2c(n1)CCc1c-2sc2ncnc(Nc3ccc(OCc4cccc(F)c4)c(Cl)c3)c12 [Example 139, (2R)-1-[6-({3-chloro-4-[(3-fluorobenzyl)oxy]phenyl}amino)-4,5-dihydro-2H-pyrimido[5′,4′:4,5]thieno[2,3-e]indazol-2-yl]-3-thiomorpholin-4-ylpropan-2-ol] |
| ≤ 50 | ≤ 1 | COC[C@@H]1CCCN1C[C@@H](O)Cn1cc2c(n1)CCc1c-2sc2ncnc(Nc3ccc(OCc4cccc(F)c4)c(Cl)c3)c12 [Example 140, (2R)-1-[6-({3-chloro-4-[(3-fluorobenzyl)oxy]phenyl}amino)-4,5-dihydro-2H-pyrimido[5′,4′:4,5]thienol[2,3-e]indazol-2-yl]-3-[(2S)-2-(methoxymethyl)pyrrolidin-1-yl]propan-2-ol] |
| ≤ 50 | ≤ 1 | O[C@H](Cn1ccnc1)Cn1cc2c(n1)CCc1c-2sc2ncnc(Nc3ccc(OCc4cccc(F)c4)c(Cl)c3)c12 [Example 141, (2R)-1-[6-({3-chloro-4-[(3-fluorobenzyl)oxy]phenyl}amino)-4,5-dihydro-2H-pyrimido[5′,4′:4,5]thieno[2,3-e]indazol-2-yl]-3-(1H-imidazol-1-yl)propan-2-ol trifluoroacetate (salt)] |
| ≤ 50 | ≤ 1 | O[C@H](CNCCN1CCOCC1)Cn1cc2c(n1)CCc1c-2sc2ncnc(Nc3ccc(OCc4cccc(F)c4)c(Cl)c3)c12 [Example 142, (2R)-1-[6-({3-chloro-4-[(3-fluorobenzyl)oxy]phenyl}amino)-4,5-dihydro-2H-pyrimido[5′,4′:4,5]thieno[2,3-e]indazol-2-yl]-3-[(2-morpholin-4-ylethyl)amino]propan-2-ol] |
| ≤ 50 | ≤ 1 | OCCN(CCO)C[C@@H](O)Cn1cc2c(n1)CCc1c-2sc2ncnc(Nc3ccc(OCc4cccc(F)c4)c(Cl)c3)c12 [Example 144, (2R)-1-[bis(2-hydroxyethyl)amino]-3-[6-({3-chloro-4-[(3-fluorobenzyl)oxy]phenyl}amino)-4,5-dihydro-2H-pyrimido[5′,4′:4,5]thieno[2,3-e]indazol-2-yl]propan-2-ol] |
| ≤ 50 | ≤ 1 | COCCNC[C@@H](O)Cn1cc2c(n1)CCc1c-2sc2ncnc(Nc3ccc(OCc4cccc(F)c4)c(Cl)c3)c12 [Example 146, (2R)-1-[6-({3-chloro-4-[(3-fluorobenzyl)oxy]phenyl}amino)-4,5-dihydro-2H-pyrimido[5′,4′:4,5]thieno[2,3-e]indazol-2-yl]-3-[(2-methoxyethyl)amino]propan-2-ol] |
| ≤ 50 | ≤ 1 | O[C@H](CN1CCCCC1)Cn1cc2c(n1)CCc1c-2sc2ncnc(Nc3ccc(OCc4cccc(F)c4)c(Cl)c3)c12 [Example 148, (2R)-1-[6-({3-chloro-4-[(3-fluorobenzyl)oxy]phenyl}amino)-4,5-dihydro-2H-pyrimido[5′,4′:4,5]thieno[2,3-e]indazol-2-yl]-3-piperidin-1-ylpropan-2-ol trifluoroacetate (salt)] |
| ≤ 50 | ≤ 1 | O[C@H](CN1CCCC1)Cn1cc2c(n1)CCc1c-2sc2ncnc(Nc3ccc(OCc4cccc(F)c4)c(Cl)c3)c12 [Example 149, (2R)-1-[6-({3-chloro-4-[(3-fluorobenzyl)oxy]phenyl}amino)-4,5-dihydro-2H-pyrimido[5′,4′:4,5]thieno[2,3-e]indazol-2-yl]-3-pyrrolidin-1-ylpropan-2-ol trifluoroacetate (salt)] |
| ≤ 50 | ≤ 1 | O[C@H](CN1CC[C@H](O)C1)Cn1cc2c(n1)CCc1c-2sc2ncnc(Nc3ccc(OCc4cccc(F)c4)c(Cl)c3)c12 [Example 150, (3S)-1-{(2R)-3-[6-({3-chloro-4-[(3-fluorobenzyl)oxy]phenyl}amino)-4,5-dihydro-2H-pyrimido[5′,4′:4,5]thieno[2,3-e]indazol-2-yl]-2-hydroxypropyl}pyrrolidin-3-ol trifluoroacetate (salt)] |
| ≤ 50 | ≤ 1 | OCCNC[C@@H](O)Cn1cc2c(n1)CCc1c-2sc2ncnc(Nc3ccc(OCc4cccc(F)c4)c(Cl)c3)c12 [Example 151, (2R)-1-[6-({3-chloro-4-[(3-fluorobenzyl)oxy]phenyl}amino)-4,5-dihydro-2H-pyrimido[5′,4′:4,5]thieno[2,3-e]indazol-2-yl]-3-[(2-hydroxyethyl)amino]propan-2-ol trifluoroacetate (salt)] |
| ≤ 50 | ≤ 1 | O[C@H](CN1CCNCC1)Cn1cc2c(n1)CCc1c-2sc2ncnc(Nc3ccc(OCc4cccc(F)c4)c(Cl)c3)c12 [Example 152, (2R)-1-[6-({3-chloro-4-[(3-fluorobenzyl)oxy]phenyl}amino)-4,5-dihydro-2H-pyrimido[5′,4′:4,5]thieno[2,3-e]indazol-2-yl]-3-piperazin-1-ylpropan-2-ol trifluoroacetate (salt)] |
| ≤ 50 | ≤ 1 | CS(=O)(=O)CCNC[C@@H](O)Cn1cc2c(n1)CCc1c-2sc2ncnc(Nc3ccc(OCc4cccc(F)c4)c(Cl)c3)c12 [Example 154, (2R)-1-[6-({3-chloro-4-[(3-fluorobenzyl)oxy]phenyl}amino)-4,5-dihydro-2H-pyrimido[5′,4′:4,5]thieno[2,3-e]indazol-2-yl]-3-{[2-(methylsulfonyl)ethyl]amino} propan-2-ol trifluoroacetate (salt)] |
| ≤ 50 | ≤ 1 | CNC[C@@H](O)Cn1cc2c(n1)CCc1c-2sc2ncnc(Nc3ccc(OCc4cccc(F)c4)c(Cl)c3)c12 [Example 155, (2R)-1-[6-({3-chloro-4-[(3-fluorobenzyl)oxy]phenyl}amino)-4,5-dihydro-2H-pyrimido[5′,4′:4,5]thieno[2,3-e]indazol-2-yl]-3-(methylamino)propan-2-ol trifluoroacetate (salt)] |
| ≤ 50 | ≤ 1 | CN(C)C[C@@H](O)Cn1cc2c(n1)CCc1c-2sc2ncnc(Nc3ccc(OCc4cccc(F)c4)c(Cl)c3)c12 [Example 156, (2R)-1-[6-({3-chloro-4-[(3-fluorobenzyl)oxy]phenyl}amino)-4,5-dihydro-2H-pyrimido[5′,4′:4,5]thieno[2,3-e]indazol-2-yl]-3-(dimethylamino)propan-2-ol trifluoroacetate (salt)] |
| ≤ 50 | ≤ 1 | CCNC[C@@H](O)Cn1cc2c(n1)CCc1c-2sc2ncnc(Nc3ccc(OCc4cccc(F)c4)c(Cl)c3)c12 [Example 157, (2R)-1-[6-({3-chloro-4-[(3-fluorobenzyl)oxy]phenyl}amino)-4,5-dihydro-2H-pyrimido[5′,4′:4,5]thieno[2,3-e]indazol-2-yl]-3-(ethylamino)propan-2-ol trifluoroacetate (salt)] |
| ≤ 50 | ≤ 5 | CCN(CC)C[C@@H](O)Cn1cc2c(n1)CCc1c-2sc2ncnc(Nc3ccc(OCc4cccc(F)c4)c(Cl)c3)c12 [Example 158, (2R)-1-[6-({3-chloro-4-[(3-fluorobenzyl)oxy]phenyl}amino)-4,5-dihydro-2H-pyrimido[5′,4′:4,5]thieno[2,3-e]indazol-2-yl]-3-(diethylamino)propan-2-ol trifluoroacetate (salt)] |
| ≤ 50 | ≤ 5 | CC(C)NC[C@@H](O)Cn1cc2c(n1)CCc1c-2sc2ncnc(Nc3ccc(OCc4cccc(F)c4)c(Cl)c3)c12 [Example 159, (2R)-1-[6-({3-chloro-4-[(3-fluorobenzyl)oxy]phenyl}amino)-4,5-dihydro-2H-pyrimido[5′,4′:4,5]thieno[2,3-e]indazol-2-yl]-3-(isopropylamino)propan-2-ol trifluoroacetate (salt)] |
| ≤ 50 | ≤ 5 | NC[C@@H](O)Cn1cc2c(n1)CCc1c-2sc2ncnc(Nc3ccc(OCc4cccc(F)c4)c(Cl)c3)c12 [Example 160, (2R)-1-amino-3-[6-({3-chloro-4-[(3-fluorobenzyl)oxy]phenyl}amino)-4,5-dihydro-2H-pyrimido[5′,4′:4,5]thieno[2,3-e]indazol-2-yl]propan-2-ol trifluoroacetate (salt)] |
| ≤ 50 | ≤ 5 | CC(C)CNC[C@@H](O)Cn1cc2c(n1)CCc1c-2sc2ncnc(Nc3ccc(OCc4cccc(F)c4)c(Cl)c3)c12 [Example 161, (2R)-1-[6-({3-chloro-4-[(3-fluorobenzyl)oxy]phenyl}amino)-4,5-dihydro-2H-pyrimido[5′,4′:4,5]thieno[2,3-e]indazol-2-yl]-3-(isobutylamino)propan-2-ol trifluoroacetate (salt)] |
| ≤ 50 | ≤ 5 | NC[C@@H](O)Cn1ncc2c1CCc1c-2sc2ncnc(Nc3ccc(OCc4cccc(F)c4)c(Cl)c3)c12 [Example 162, (2R)-1-amino-3-[6-({3-chloro-4-[(3-fluorobenzyl)oxy]phenyl}amino)-4,5-dihydro-3H-pyrimido[5′,4′:4,5]thieno[2,3-e]indazol-3-yl]propan-2-ol trifluoroacetate (salt)] |
| ≤ 50 | ≤ 5 | CC(C)NC[C@@H](O)Cn1ncc2c1CCc1c-2sc2ncnc(Nc3ccc(OCc4cccc(F)c4)c(Cl)c3)c12 [Example 163, (2R)-1-[6-({3-chloro-4-[(3-fluorobenzyl)oxy]phenyl}amino)-4,5-dihydro-3H-pyrimido[5′,4′:4,5]thieno[2,3-e]indazol-3-yl]-3-(isopropylamino)propan-2-ol trifluoroacetate (salt)] |
| ≤ 50 | ≤ 5 | COCCN(CCOC)C[C@@H](O)Cn1ncc2c1CCc1c-2sc2ncnc(Nc3ccc(OCc4cccc(F)c4)c(Cl)c3)c12 [Example 164, (2R)-1-[bis(2-methoxyethyl)amino]-3-[6-({3-chloro-4-[(3-fluorobenzyl)oxy]phenyl}amino)-4,5-dihydro-3H-pyrimido[5′,4′:4,5]thieno[2,3-e]indazol-3-yl]propan-2-ol trifluoroacetate (salt)] |
